Data from US5460697A, “Method of pulping wood chips with a fungi using sulfite salt-treated wood chips” (priority 1994, dated 1995).
Entries after “also recorded” stand apart in the source; their conditions may differ.

Experiments:
P. brevispora 7030-sp = experiment: Effect of sodium bisulfite on radial growth of white-rot fungi; type: cell-based; conditions: 500 μg/ml
Protocol: (§1) 2% agar was added to the medium. The medium was autoclaved for 15 min. and the medium was poured into petri dishes. These plates were then inoculated with a plug cut into 8-mm diameter plugs from a petri dish containing a 5-day-old culture of P. chrysosporium or a petri dish containing a 10-day-old culture of another white-rot fungi. P. chrysosporium-inoculated plates were incubated at 39° C. Plates inoculated with other fungi were incubated at 27° C.

H. setulosa FP-106976-sp = experiment: as above; type: cell-based; conditions: 500 μg/ml
Protocol: as §1

[1] = system: P. subserialis RLG-6074-sp; experiment: as above; type: cell-based; conditions: 500 μg/ml
Protocol: as §1

P. tremellosa PRL-2845 = experiment: as above; type: cell-based; conditions: 500 μg/ml
Protocol: as §1

white-rot fungi = experiment: Effect of sodium bisulfite on radial growth of white-rot fungi (summary); type: cell-based, white-rot fungi listed in Table 7; conditions: 500 μg/ml, 72 and 96 h
Protocol: as §1

[2] = Effluent toxicity (Microtox); conditions: for Toxicity Units (100/EC50): 1300 μg/ml BiS
Excerpt: Evaluating biopulp effluents is an important factor in assessing the feasibility of this new pulping process. […] Because the composition of biopulp effluent is unknown, we selected a general toxicity test method, Microtox, as an appropriate method for the evaluation. Microtox analysis has been used satisfactorily as a rapid screening method for evaluating toxicity of pulp mill effluents Firth, B. and Backman, C. Tappi J., 75[12]169; 1991.
For each run, approximately 1.5-1.6 kg wood chips (oven dry weight basis) of each treatment from 4-week incubation samples, were fiberized in an atmospheric refiner and the pulp slurry was collected in 20-gallon plastic containers. The flow rate during refining operation was approximately 50 kg 90° C. water per kg chips (oven dry weight basis). A representative 5-gallon sample was taken from each slurry and filtered on a Buchner funnel to separate pulp from effluent (filtrate). Filtrates were cooled to 4° C. and pH was recorded. Chilled effluent samples were submitted for Microtox testing at National Council for Air and Stream Improvement according to standard Microtox procedures.

[3] = system: indigenous microorganisms; experiment: Effect of sulfite salts on indigenous microorganisms of unsterilized wood chips (plating); type: cell-based, indigenous microorganisms of unsterilized aspen wood chips
Protocol: Aspen wood chips (50 g O.D. basis) were soaked in 500 ml of water containing either 0 mg, 781 mg or 1562 mg sodium bisulfite for about 1 hour at room temperature. After soaking, water was drained from the chips.
During the 1 hour soaking the chips soaked up about 31 ml of water. Therefore, the final moisture content of wood was about 61% (wet weight basis) and the final concentration of each chemical on water basis was about 0 μg/ml, 600 μg/ml and 1200 μg/ml.
Three chips were pulled randomly from each flask and plated on potato dextrose agar and tryptic soy agar plates. These plates were incubated at 27° C. for 24 or 27 h and the contaminants were visually observed.
A panel of other sulfur-containing chemicals were analyzed for their ability to inhibit the growth of indigenous microorganisms on unsterilized wood chips in the manner described above. Table 2 describes the various concentrations of these chemicals and the percent inhibition relative to control plates observed.

C. subvennispora CZ-3 = experiment: Effect of sodium bisulfite on radial growth of white-rot fungi; type: cell-based, C. subvermispora; conditions: 500 μg/ml
Protocol: as §1

[4] = system: C. subvennispora L-15225-sp; experiment: as above; type: cell-based, C. subvermispora; conditions: 500 μg/ml
Protocol: as §1

[5] = system: C. subvennispora L-14807-sp; experiment: as above; type: cell-based, C. subvermispora; conditions: 500 μg/ml
Protocol: as §1

[6] = system: C. subvennispora L-6133-sp; experiment: as above; type: cell-based, C. subvermispora; conditions: 500 μg/ml
Protocol: as §1

[7] = system: C. subvennispora FP-105752-sp; experiment: as above; type: cell-based, C. subvermispora; conditions: 500 μg/ml
Protocol: as §1

[8] = system: C. subvennispora FP-90031-sp; experiment: as above; type: cell-based, C. subvermispora; conditions: 500 μg/ml
Protocol: as §1

[9] = system: C. subvennispora FP-104027-T; experiment: as above; type: cell-based, C. subvermispora; conditions: 500 μg/ml
Protocol: as §1

For `O=S([O-])O.[Na+]` [Sodium Bisulfite], the “Radial growth 72h ± SD” value (P. brevispora 7030-sp; 72 h) was 2.23 ± .06 cm, the “Radial growth 96h ± SD” value (P. brevispora 7030-sp; 96 h) was 4.07 ± .38 cm and the “Radial growth 72h ± SD” value (H. setulosa FP-106976-sp; 72 h) was 1.97 ± .06 cm. The “Radial growth 96h ± SD” value (H. setulosa FP-106976-sp; 96 h) was 3.77 ± .25 cm, the “Radial growth 72h ± SD” value ([1]; 72 h) was 3.93 ± .42 cm and the “Radial growth 96h ± SD” value ([1]; 96 h) was 7.07 ± .29 cm. The “Radial growth 72h ± SD” value (P. tremellosa PRL-2845; 72 h) was 1.73 ± .06 cm, the “Radial growth 96h ± SD” value (P. tremellosa PRL-2845; 96 h) was 2.97 ± .12 cm and the “radial growth (in words)” value (white-rot fungi) was “increased the radial growth”. The “Toxicity Units (100/EC50)” value ([2]; Control 2: not A/C, no fungus) was 15.4 Toxicity Units, the “Toxicity Units (100/EC50)” value ([2]; Control 4: A/C, no fungus) was 16.1 Toxicity Units and the “Toxicity Units (100/EC50)” value ([2]; Treatment 2: not A/C, with fungus, 4-week incubation) was 4.2 Toxicity Units. For the same compound, the “Toxicity Units (100/EC50)” value ([2]; Treatment 4: A/C, with fungus, 4-week incubation) was 6.2 Toxicity Units, the “toxicity (in words)” value ([2]; at least 2-2.5 kg/ton of wood chips, unsterilized, vs control chips) was “less toxicity than from control chips” and the “effluent toxicity (in words)” value ([2]; biopulp, treatment 2) was “least toxic effluent from biopulp”. The “effluent toxicity (in words)” value ([2]; controls without fungus (control 2, control 4)) was “high effluent toxicity; also recorded: increased effluent toxicity of the non-autoclaved control chips”, the “Inhibition Relative to control” value ([3]; 600 μg/ml) was 95% and the “Inhibition Relative to control” value ([3]; 1200 μg/ml) was 100%. For the same compound, the “inhibition of contaminants (in words)” value ([3]; 1200 μg/ml, potato dextrose and tryptic soy agar plates) was “completely inhibited all contaminants; also recorded: no colonies on the plate”, the “first test: whether the salt inhibits growth of indigenous microorganisms” value ([3]; pass / not pass) was “passed the first test” and the “inhibition of growth of indigenous microorganisms (in words)” value ([3]; unsterilized wood chips, overall statement) was “successfully inhibited the growth of microorganisms; also recorded: inhibited all wood contaminants; also recorded: inhibited the growth of indigenous microorganisms”. For the same compound, the “Radial growth 72h ± SD” value (C. subvennispora CZ-3; 72 h) was 2.37 ± .12 cm, the “Radial growth 96h ± SD” value (C. subvennispora CZ-3; 96 h) was 4.37 ± .15 cm and the “Radial growth 72h ± SD” value ([4]; 72 h) was 1.63 ± .40 cm. For the same compound, the “Radial growth 96h ± SD” value ([4]; 96 h) was 4.20 ± .72 cm, the “Radial growth 72h ± SD” value ([5]; 72 h) was 2.60 ± .30 cm and the “Radial growth 96h ± SD” value ([5]; 96 h) was 5.07 ± .31 cm. For the same compound, the “Radial growth 72h ± SD” value ([6]; 72 h) was 2.37 ± .25 cm, the “Radial growth 96h ± SD” value ([6]; 96 h) was 4.80 ± .20 cm and the “Radial growth 72h ± SD” value ([7]; 72 h) was 2.13 ± .06 cm. For the same compound, the “Radial growth 96h ± SD” value ([7]; 96 h) was 4.00 ± 00 cm, the “Radial growth 72h ± SD” value ([8]; 72 h) was 3.20 ± .20 cm and the “Radial growth 96h ± SD” value ([8]; 96 h) was 5.77 ± .31 cm. The “Radial growth 72h ± SD” value ([9]; 72 h) was 3.63 ± .23 cm and the “Radial growth 96h ± SD” value ([9]; 96 h) was 6.07 ± .46 cm.
